Results taken from ChEMBL document CHEMBL4418497, “Compositions and methods relating to inhibiting serine hyrdoxymethyltransferase 2 activity” (2016).

Target: T1, Serine hydroxymethyltransferase, mitochondrial (Homo sapiens, UniProt P34897)
T1 sequence (P34897 whole entry): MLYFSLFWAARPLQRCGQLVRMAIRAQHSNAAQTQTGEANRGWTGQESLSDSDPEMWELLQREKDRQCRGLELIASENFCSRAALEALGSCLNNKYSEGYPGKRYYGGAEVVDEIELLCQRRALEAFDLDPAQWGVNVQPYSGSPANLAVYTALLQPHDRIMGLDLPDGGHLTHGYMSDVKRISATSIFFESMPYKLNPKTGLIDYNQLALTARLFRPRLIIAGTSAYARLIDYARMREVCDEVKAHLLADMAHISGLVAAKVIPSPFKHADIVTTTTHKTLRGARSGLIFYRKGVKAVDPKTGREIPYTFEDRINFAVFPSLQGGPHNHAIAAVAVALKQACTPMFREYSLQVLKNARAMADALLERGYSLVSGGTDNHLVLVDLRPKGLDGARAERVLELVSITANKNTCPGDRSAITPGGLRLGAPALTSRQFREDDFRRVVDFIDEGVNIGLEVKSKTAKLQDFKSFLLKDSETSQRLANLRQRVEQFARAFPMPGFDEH
Experiment: Inhibition of His-tagged human recombinant SHMT2 expressed in Escherichia coli BLR(DE3) assessed as reduction in NADPH level using L-serine, THF and NADP+ incubated for 5 mins by SHMT2-MTHFD coupled reaction based fluorescence assay
Conditions: read-out: IC50

In order of rising IC50:
1. COc1ccc(-c2nc3c4nsnc4ccc3n2C)cc1Br  0.54 µM
2. C=CCOc1ccc(C2CC(=O)Nc3c(-c4ccccc4OC)csc32)cc1 (stereo not given)  1.02 µM
3. COc1ccc(Nc2ncnc3sc(C(=O)O)cc23)c(OC)c1  1.35 µM
4. CC(=O)N1CCc2c(c(=O)[nH]c3onc(C)c23)C1  1.41 µM
5. CCC(=O)Nc1cc(F)c2nc(N3CCOCC3)ccc2c1  1.55 µM
6. CCCCC(=O)Nc1cc(F)c2nc(N3CCOCC3)ccc2c1  1.58 µM
7. C=CCNc1nc(Nc2ccc(OC)cc2)c2cnn(C)c2n1  1.62 µM
8. Cc1cc(=O)c2c(=O)n(-c3nc4ccccc4s3)[nH]c2[nH]1  1.62 µM
9. CC(C)Cn1cc(NC(=O)NCCN2CCCCC2)c2ccccc2c1=O  1.74 µM
10. CC(C)Cn1cc(NC(=O)Nc2ccc(F)cc2Cl)c2ccccc2c1=O  1.86 µM
11. CCc1ccc(NS(=O)(=O)c2ccc3c4c2CC(=O)N4CC(C)S3)cc1 (stereo not given)  2.14 µM
12. CC(C)Cn1cc(NC(=O)Nc2cccnc2)c2ccccc2c1=O  2.24 µM
13. COc1ccc(OC)c(Nc2c(-c3ccc4c(c3)CCCC4)c(=O)c2=O)c1  2.4 µM
14. COc1ccc(Nc2nc(Nc3ccc(OC)c(Cl)c3)c3cnn(C)c3n2)c(OC)c1  2.45 µM
15. CNc1nc2[nH]c(=O)cc(O)c2s1  2.51 µM
16. COc1ccc(OC)c(CNC(=O)Nc2cn(C)c(=O)c3ccccc23)c1  2.57 µM
17. Cc1cccc(NC(=O)Nc2cn(CC(C)C)c(=O)c3ccccc23)n1  2.57 µM
18. O=C(Nc1cc(F)c2nc(N3CCCC3)ccc2c1)C1CCCCC1  2.57 µM
19. COc1ccc(NC(=O)N2CCn3c(C)ccc3C2C(C)C)cc1OC (stereo not given)  2.69 µM
20. COc1ccc(Nc2nc(NC3CCCC3)nc3c2cnn3C)cc1  2.69 µM
21. O=C(Nc1ccc2c(c1)OCCO2)N1CCSc2ncccc21  2.75 µM
22. CC(=O)Oc1cc2c(C(=O)N3CCN(c4ccccc4)CC3)c(C)oc2c2ccccc12  2.88 µM
23. COc1cc(OC)c(NC(=O)Nc2cn(CC(C)C)c(=O)c3ccccc23)cc1Cl  2.95 µM
24. COc1cc2c(cc1OC)C(C)N(C(=O)Nc1cn(CC(C)C)c(=O)c3ccccc13)CC2 (stereo not given)  3.02 µM
25. O=C(Nc1ccc2c(c1)OCCO2)N1Cc2ccccc2Oc2ncccc21  3.09 µM
26. CC(=O)Nc1ccc2nc(SCc3cc(=O)n4nc(C)sc4n3)sc2c1  3.09 µM
27. CCOC(=O)Cc1csc(NC(=O)Nc2cn(CC(C)C)c(=O)c3ccccc23)n1  3.31 µM
28. COc1ccc(NC(=O)N2CCN3CCCCC3C2)cc1OC (stereo not given)  3.39 µM
29. COc1ccc(NC(=O)N2CCC3(CC2)Nc2ccccc2-n2cccc23)c(OC)c1  3.47 µM
30. Cc1csc(NC(=O)Nc2cn(CC(C)C)c(=O)c3ccccc23)n1  3.47 µM
31. O=C(Nc1cc(F)c2nc(N3CCOCC3)ccc2c1)c1ccco1  3.55 µM
32. Cc1c(C(=O)NCCN2CCOCC2)oc2c1-c1[nH]ncc1CC2  3.55 µM
33. COc1cccc(NS(=O)(=O)c2ccc3c4c2CC(=O)N4CC(C)S3)c1 (stereo not given)  3.63 µM
34. COc1cc(OC)c(N(C)C(=O)Nc2cn(C)c(=O)c3ccccc23)cc1Cl  3.72 µM
35. COc1ccc(Nc2nnc(Cc3ccncc3)c3ccccc23)c(OC)c1  3.89 µM
36. COc1ccc(OC)c(NS(=O)(=O)c2cc(-c3cc(C)no3)ccc2C(C)C)c1  3.89 µM
37. Cc1nn(C)c(C)c1CNC(=O)Nc1ccc2c(c1)OCCO2  4.07 µM
38. CCN(CC)CCNC(=O)c1noc2c1CCc1sccc1-2  4.17 µM
39. Cc1c(C(=O)NCCCN2CCOCC2)oc2c1-c1[nH]ncc1CC2  4.17 µM
40. CC(C)Cn1cc(NC(=O)Nc2cc(F)ccc2F)c2ccccc2c1=O  4.27 µM
41. Cc1cc(NC(=O)N2CCSc3ncccc32)ccc1Br  4.37 µM
42. Cn1cc(NC(=O)NCC2CCCO2)c2ccccc2c1=O (stereo not given)  4.47 µM
43. CCCCN1CCS(=O)(=O)c2c(Cl)c(N3CCOCC3)nc(Oc3ccc(F)cc3)c21  4.57 µM
44. O=C1CCCC2=C1C(c1cccs1)N(S(=O)(=O)c1ccc(F)cc1)c1ccccc1N2 (stereo not given)  4.57 µM
45. COc1cc(OC)c(NC(=O)NCCc2csc(C)c2C)cc1Cl  4.57 µM
46. Cn1cc(NC(=O)NCc2ccccn2)c2ccccc2c1=O  4.79 µM
47. CCOc1ccc(NS(=O)(=O)c2ccc3c4c2CC(=O)N4CC(C)S3)cc1 (stereo not given)  5.01 µM
48. CNC(=O)c1oc2c(c1C)C1N=C(C)SC1CC2 (stereo not given)  5.13 µM
49. O=c1c(Nc2cccc3c2CCCC3)c(-c2ccc(Cl)cc2)c1=O  5.25 µM
50. Cn1cc(NC(=O)NCc2cccnc2)c2ccccc2c1=O  5.75 µM
51. CC(C)Cn1cc(NC(=O)N2CCN(c3cccc(Cl)c3)CC2)c2ccccc2c1=O  5.89 µM
52. COC(=O)Cn1cc2c(n1)-c1c(oc(C(=O)N3CCCC3)c1C)CC2  6.03 µM
53. CCOC(=O)C1CCCN(C(=O)Nc2cn(C)c(=O)c3ccccc23)C1 (stereo not given)  6.46 µM
54. CCOC(=O)C1CCN(c2cc(C(=O)O)c3cc(N)ccc3n2)CC1  6.46 µM
55. O=C1CN(S(=O)(=O)c2ccc3[nH]c4c(c3c2)CCCC4)c2ccccc2N1  6.76 µM
56. Cc1c(C(=O)NCc2ccco2)oc2c1-c1[nH]ncc1CC2  6.92 µM
57. Cc1c(C(=O)NCc2cccs2)oc2c1-c1[nH]ncc1CC2  7.94 µM
58. Cc1cc(CNC(=O)Nc2ccc3c(c2)OCCO3)c(C)n1-c1ccc(Cl)cc1  8.51 µM
59. Cn1c(=O)oc2cc(S(=O)(=O)N3CCC4(CC3)Nc3cc(F)ccc3-n3cccc34)ccc21  8.51 µM
60. COc1ccc2c(c1)C=C(C(=O)Nc1ccc(OC)cc1OC)CO2  8.71 µM
61. CC(C)Cn1cc(NC(=O)NC2CC2)c2ccccc2c1=O  8.71 µM
62. CC(C)Cn1cc(NC(=O)Nc2ccc(N3CCC(C)CC3)cc2)c2ccccc2c1=O  8.91 µM
63. COc1ccc(NC(=O)n2ncc3cc(Cl)ccc32)cc1OC  9.77 µM
64. O=C1c2ccccc2C(Nc2ccc3[nH]c(-c4cccnc4)nc3c2)N1Cc1ccco1 (stereo not given)  9.77 µM
65. CC1CC(C)CN(CCCNC(=O)Nc2cn(C)c(=O)c3ccccc23)C1 (stereo not given)  10.7 µM
66. O=C1CSC(c2ccccn2)N1c1ccc2ccccc2c1 (stereo not given)  11 µM
67. CCc1nnc2c3ccccc3nc(Nc3ccc(OC)c(OC)c3)n12  12.3 µM
68. COc1ccc(NC2c3ncccc3C(=O)N2Cc2ccco2)cc1OC (stereo not given)  12.6 µM
69. COc1cc(OC)c(NC(=O)N2CCn3cccc3C2C)cc1Cl (stereo not given)  12.9 µM

Same assay, conditions: read-out: pIC50 (converted)

Compound `O=C(O)CCc1nc(-c2ccccc2)c(-c2ccccc2)o1` [OXAPROZIN] has an IC50 of 1.95 µM.

Target: T2, Serine hydroxymethyltransferase, mitochondrial (Homo sapiens) (UniProt P34897)
T2 sequence (whole entry): T1 sequence (P34897 whole entry)
Experiment: Inhibition of His-tagged human recombinant SHMT2 expressed in Escherichia coli BLR(DE3) assessed as reduction in NADPH level using L-serine, THF and NADP+ at 6.5 or 26.5 uM incubated for 5 mins by SHMT2-MTHFD coupled reaction based fluorescence assay relative to control
Conditions: not given

In order of rising inhibition:
1. COC(=O)CC1C(C)(C)C(OC(C)=O)[C@@H]2[C@@H](OC(C)=O)[C@]34O[C@@H]2[C@]1(C)C3CC[C@]1(C)C4=CC(=O)O[C@H]1c1ccoc1 (stereo not given in full)  52.4%
2. CCOC(=O)[C@H](CCc1ccccc1)N[C@H](C)C(=O)N1C2CCCCC2C[C@H]1CO (stereo not given in full)  53%
3. COC(=O)[C@@H](c1ccc2sccc2c1)c1ccccc1Cl  53.3%
4. Nc1nc(=O)c2nc(CNc3ccc(C(=O)N[C@@H](CCC(=O)O)C(=O)O)cc3)cnc2[nH]1  53.6%
5. Fc1ccc(COc2ccc(-c3nnco3)cc2)cc1  53.7%
6. Cc1cccc(CCN2CCC(C(=O)c3ccc(NS(C)(=O)=O)cc3)CC2)n1  54.9%
7. CNC(=O)Oc1ccc2c(c1)[C@]1(C)CCN(C)[C@@H]1N2  55.9%
8. COC(=O)/C=C(/Nc1cc(OC)ccc1OC)C(=O)OC  56.3%
9. CN1CC[C@@]2(C)c3cc(OC(=O)Nc4ccccc4)ccc3N(C)[C@@H]12  56.6%
10. COC(=O)[C@@H]1[C@H]2C[C@H]3c4[nH]c5ccccc5c4CCN3C[C@@H]2CC[C@@H]1O  57.4%
11. Cc1cccc(C)c1NC(=O)[C@@H]1CCCCN1C  60.1%
12. CS(=O)(=O)c1ccc2ccn(O)c2c1  60.3%
13. CN1CCN(CCCN2c3ccccc3SC3C=CC(Cl)=CC32)CC1 (stereo not given)  61.6%
14. CC(C)C[C@H](N(C)C)C1(c2ccc(Cl)cc2)CCC1  62%
15. CC(=O)N[C@H]1CN2CC[C@H](O)[C@@H]2[C@@H](O)[C@@H]1O  63.8%
16. CC(=O)C1CC[C@H]2C3CC[C@H]4C[C@H](O)CC[C@]4(C)C3CC[C@]12C (stereo not given in full)  65.9%
17. COc1ccc2c(c1O)-c1c(OC)c(OC)cc3c1C(C2)N(C)CC3 (stereo not given)  69.3%
18. CC(C)(C)C(=O)C(C#N)CNc1cccc2nsnc12 (stereo not given)  69.6%
19. CN(C)N1C(=O)c2cccc3c(Br)ccc(c23)C1=O  69.8%
20. COc1ccc2cc1Oc1ccc(cc1)C[C@H]1c3c(cc4c(c3Oc3cc5c(cc3OC)CCN(C)[C@@H]5C2)OCO4)CCN1C  70.4%
21. CC(=O)[C@H]1CC[C@H]2[C@@H]3CCC4C[C@H](O)CC[C@]4(C)[C@H]3C[C@H](O)[C@]12C (stereo not given in full)  71.6%
22. Oc1ccc2[nH]cc(C3=CCNCC3)c2n1  73.2%
23. COC(=O)[C@@H]1C(O)CC[C@H]2CN3CCc4c([nH]c5ccccc45)[C@@H]3C[C@@H]21 (stereo not given in full)  73.9%
24. COc1cc(OC)c2c(c1Cl)OC1(C2=O)C(O)=CC(=O)CC1C (stereo not given)  77.8%
25. Cc1nc2c(OCc3ccccc3)cccn2c1CC#N  77.9%
26. c1ccc2c(N3CCNCC3)cccc2c1  86.1%
27. CCC(N)C(O)c1ccc(O)c(O)c1 (stereo not given)  87%
28. Nc1cc(-c2ccncc2)c[nH]c1=O  92.3%
29. COc1cc2c(CCNC(C)=O)c[nH]c2cc1O  92.7%
30. Cc1onc(-c2c(Cl)cccc2Cl)c1NC(=O)Nc1ccc(N(C)C)c(Cl)c1C#N  97.1%
